Tested on: MV-4-11 cells
Assay: Gene expression microarray analysis (Affymetrix PrimeView) and GSEA
Type: cell-based, human
Design: RFU PODN (11730768_x_at) / Fold change /veh PODN (11730768_x_at) / RFU LINC00158 (11744669_a_at) / Fold change /veh LINC00158 (11744669_a_at) / RFU DUSP10 (11751237_a_at) / Fold change /veh DUSP10 (11751237_a_at) / RFU ID3 (11757404_x_at) / Fold change /veh ID3 (11757404_x_at) / RFU PLEKHG5 (11737974_s_at) / Fold change /veh PLEKHG5 (11737974_s_at) / RFU LRRC4B (11730491_at) / Fold change /veh LRRC4B (11730491_at) / RFU GIMAP4 (11747438_a_at) / Fold change /veh GIMAP4 (11747438_a_at) / RFU KRT8 (11758183_x_at) / Fold change /veh KRT8 (11758183_x_at) / RFU CNN1 (11734310_a_at) / Fold change /veh CNN1 (11734310_a_at) / RFU VPS37D (11726825_at) / Fold change /veh VPS37D (11726825_at) / RFU C10orf10 (11716522_x_at) / Fold change /veh C10orf10 (11716522_x_at) / RFU KIR2DL2 /// KIR2DL4 /// KIR2DL5A /// KIR2DL5B /// KIR2DS1 /// KIR2DS2 /// KIR2DS3 /// KIR2DS4 /// KIR3DL3 /// KIR3DL3 /// KIR3DS1 (11738374_at) / Fold change /veh KIR2DL2 /// KIR2DL4 /// KIR2DL5A /// KIR2DL5B /// KIR2DS1 /// KIR2DS2 /// KIR2DS3 /// KIR2DS4 /// KIR3DL3 /// KIR3DL3 /// KIR3DS1 (11738374_at) / RFU C1QL1 (11718748_at) / Fold change /veh C1QL1 (11718748_at) / RFU TMPRSS4 (11747572_a_at) / Fold change /veh TMPRSS4 (11747572_a_at) / RFU HAMP (11756126_x_at) / Fold change /veh HAMP (11756126_x_at) / RFU RNFT2 (11725882_a_at) / Fold change /veh RNFT2 (11725882_a_at) / RFU NR4A2 (11747474_a_at) / Fold change /veh NR4A2 (11747474_a_at) / RFU ABCC12 (11746883_a_at) / Fold change /veh ABCC12 (11746883_a_at) / RFU TMEM136 (11760407_x_at) / Fold change /veh TMEM136 (11760407_x_at) / RFU CLDN22 /// WWC2 (11732394_at) / Fold change /veh CLDN22 /// WWC2 (11732394_at) / RFU HLA-DPB1 (11760878_x_at) / Fold change /veh HLA-DPB1 (11760878_x_at) / RFU SPINT1 (11716480_a_at) / Fold change /veh SPINT1 (11716480_a_at) / RFU GAP43 (11754022_s_at) / Fold change /veh GAP43 (11754022_s_at) / RFU A4GNT (11735810_at) / Fold change /veh A4GNT (11735810_at) / RFU PRB3 (11715151_x_at) / Fold change /veh PRB3 (11715151_x_at) / RFU TUBB4B (11761932_at) / Fold change /veh TUBB4B (11761932_at) / RFU CAPN14 (11732068_a_at) / Fold change /veh CAPN14 (11732068_a_at) / RFU TMCC2 (11721928_a_at) / Fold change /veh TMCC2 (11721928_a_at) / RFU IRGQ (11745062_a_at) / Fold change /veh IRGQ (11745062_a_at) / RFU FAM174B (11720279_a_at) / Fold change /veh FAM174B (11720279_a_at) / RFU TMPRSS4 (11748680_a_at) / Fold change /veh TMPRSS4 (11748680_a_at) / RFU FAM212B (11763350_a_at) / Fold change /veh FAM212B (11763350_a_at) / RFU PLEKHG5 (11743358_a_at) / Fold change /veh PLEKHG5 (11743358_a_at) / RFU ZSCAN30 (11745921_a_at) / Fold change /veh ZSCAN30 (11745921_a_at) / RFU CMKLR1 (11741424_a_at) / Fold change /veh CMKLR1 (11741424_a_at) / RFU LOC101060620 /// MAPK8IP1 (11723275_at) / Fold change /veh LOC101060620 /// MAPK8IP1 (11723275_at) / RFU SPTSSB (11747773_x_at) / Fold change /veh SPTSSB (11747773_x_at) / RFU PRSS12 (11739890_at) / Fold change /veh PRSS12 (11739890_at) / RFU BIN1 (11741810_x_at) / Fold change /veh BIN1 (11741810_x_at) / RFU WNT11 (11732464_a_at) / Fold change /veh WNT11 (11732464_a_at) / RFU C10orf10 (11716521_a_at) / Fold change /veh C10orf10 (11716521_a_at) / RFU C5orf56 (11738089_at) / Fold change /veh C5orf56 (11738089_at) / RFU CYB561 (11721691_x_at) / Fold change /veh CYB561 (11721691_x_at) / RFU ANKRD19P (11752326_a_at) / Fold change /veh ANKRD19P (11752326_a_at) / RFU OR2T12 /// OR2T33 /// OR2T8 (11738714_s_at) / Fold change /veh OR2T12 /// OR2T33 /// OR2T8 (11738714_s_at) / RFU VCAN (11748164_a_at) / Fold change /veh VCAN (11748164_a_at) / RFU JSRP1 (11732532_at) / Fold change /veh JSRP1 (11732532_at) / RFU KRTAP10-11 (11738290_x_at) / Fold change /veh KRTAP10-11 (11738290_x_at) / RFU MYO3A (11730013_a_at) / Fold change /veh MYO3A (11730013_a_at) / RFU EBF3 (11725865_a_at) / Fold change /veh EBF3 (11725865_a_at) / RFU CAMK2N1 (11719241_x_at) / Fold change /veh CAMK2N1 (11719241_x_at) / RFU C5orf56 (11738088_a_at) / Fold change /veh C5orf56 (11738088_a_at) / RFU OLFML3 (11715873_a_at) / Fold change /veh OLFML3 (11715873_a_at) / RFU LOC100653217 /// NTM (11731650_a_at) / Fold change /veh LOC100653217 /// NTM (11731650_a_at) / RFU MAPK11 (11762145_a_at) / Fold change /veh MAPK11 (11762145_a_at) / RFU FIZ1 (11724087_x_at) / Fold change /veh FIZ1 (11724087_x_at) / RFU OASL (11726364_x_at) / Fold change /veh OASL (11726364_x_at) / RFU SOX15 (11748057_x_at) / Fold change /veh SOX15 (11748057_x_at) / RFU CD79A (11719716_a_at) / Fold change /veh CD79A (11719716_a_at) / RFU HIST1H1D (11736915_at) / Fold change /veh HIST1H1D (11736915_at) / RFU CASKIN2 (11723855_a_at) / Fold change /veh CASKIN2 (11723855_a_at) / RFU LOC730098 (11760151_x_at) / Fold change /veh LOC730098 (11760151_x_at) / RFU OR4N2 (11742367_at) / Fold change /veh OR4N2 (11742367_at) / RFU PRRT2 (11749266_a_at) / Fold change /veh PRRT2 (11749266_a_at) / RFU SNX32 (11753110_a_at) / Fold change /veh SNX32 (11753110_a_at) / RFU CDHR5 (11726645_a_at) / Fold change /veh CDHR5 (11726645_a_at) / RFU RCAN1 (11760418_a_at) / Fold change /veh RCAN1 (11760418_a_at) / RFU FAM167A (11723789_a_at) / Fold change /veh FAM167A (11723789_a_at) / RFU FAM26E (11764081_at) / Fold change /veh FAM26E (11764081_at) / RFU ISYNA1 (11749810_s_at) / Fold change /veh ISYNA1 (11749810_s_at) / RFU ACY1 (11761880_at) / Fold change /veh ACY1 (11761880_at) / RFU 11764098_at / Fold change /veh 11764098_at / RFU SAMD14 (11745864_x_at) / Fold change /veh SAMD14 (11745864_x_at) / RFU NPB (11741838_a_at) / Fold change /veh NPB (11741838_a_at) / RFU TMPRSS6 (11731388_a_at) / Fold change /veh TMPRSS6 (11731388_a_at) / RFU KRTAP10-2 (11738614_at) / Fold change /veh KRTAP10-2 (11738614_at) / RFU ARHGAP8 /// PRR5-ARHGAP8 (11727945_x_at) / Fold change /veh ARHGAP8 /// PRR5-ARHGAP8 (11727945_x_at) / RFU KRTAP5-7 /// NADSYN1 (11734609_at) / Fold change /veh KRTAP5-7 /// NADSYN1 (11734609_at) / RFU RASL12 (11751679_a_at) / Fold change /veh RASL12 (11751679_a_at) / RFU CDKN2B (11736163_a_at) / Fold change /veh CDKN2B (11736163_a_at) / RFU PRF1 (11729649_at) / Fold change /veh PRF1 (11729649_at) / RFU, ZNF638 /// ZNF638-IT1 / Fold change vs veh, ZNF638 /// ZNF638-IT1 / RFU, PANK3 / Fold change vs veh, PANK3 / RFU, SH3YL1 / Fold change vs veh, SH3YL1 / RFU, ZEB2 / Fold change vs veh, ZEB2 / RFU, NRIP1 / Fold change vs veh, NRIP1 / RFU, PTTG1IP / Fold change vs veh, PTTG1IP / RFU, CAPN2 / Fold change vs veh, CAPN2 / RFU, MED14 / Fold change vs veh, MED14 / RFU, SNORA58 / Fold change vs veh, SNORA58 / RFU, C1orf63 / Fold change vs veh, C1orf63 / RFU, LRRFIP1 / Fold change vs veh, LRRFIP1 / RFU, NDUFAF7 / Fold change vs veh, NDUFAF7 / RFU, SLC12A2 / Fold change vs veh, SLC12A2 / RFU, IBTK / Fold change vs veh, IBTK / RFU, ESF1 / Fold change vs veh, ESF1 / Fold change vs veh, TMEM50B / RFU, TAOK1 / Fold change vs veh, TAOK1 / RFU, ACBD3 / Fold change vs veh, ACBD3 / RFU, TMA16 / Fold change vs veh, TMA16 / RFU, RWDD3 / Fold change vs veh, RWDD3 / RFU, BCAT1 / Fold change vs veh, BCAT1 / RFU, EDEM3 / Fold change vs veh, EDEM3 / RFU, TMEM33 / Fold change vs veh, TMEM33 / RFU, WDR75 / Fold change vs veh, WDR75 / RFU, AHCTF1 / Fold change vs veh, AHCTF1 / RFU, TFRC / Fold change vs veh, TFRC / RFU, ZDHHC17 / Fold change vs veh, ZDHHC17 / RFU, NOM1 / Fold change vs veh, NOM1 / RFU, ARL8B / Fold change vs veh, ARL8B / RFU, ZBTB11 / Fold change vs veh, ZBTB11 / RFU, TAMM41 / Fold change vs veh, TAMM41 / RFU, KIAA1704 /// LOC100996395 / Fold change vs veh, KIAA1704 /// LOC100996395 / RFU, ING1 / Fold change vs veh, ING1 / RFU, TRMT61B / Fold change vs veh, TRMT61B / RFU, FUBP3 / Fold change vs veh, FUBP3 / RFU, TP53 / Fold change vs veh, TP53 / RFU, TNKS2 / Fold change vs veh, TNKS2 / RFU, ZFP14 / Fold change vs veh, ZFP14 / RFU, ACTR2 / Fold change vs veh, ACTR2 / RFU, PPP3R1 / Fold change vs veh, PPP3R1 / RFU, PIK3R1 / Fold change vs veh, PIK3R1 / RFU, HNRNPA1 / Fold change vs veh, HNRNPA1 / RFU, RNF170 / Fold change vs veh, RNF170 / RFU, ZNF28 / Fold change vs veh, ZNF28 / RFU, RNGTT / Fold change vs veh, RNGTT / RFU, OGT / Fold change vs veh, OGT / RFU, BRD1 / Fold change vs veh, BRD1 / RFU, MARS / Fold change vs veh, MARS / RFU, ZNF655 / Fold change vs veh, ZNF655 / RFU, FAHD1 / Fold change vs veh, FAHD1 / RFU, BDP1 / Fold change vs veh, BDP1 / RFU, LRRCC1 / Fold change vs veh, LRRCC1 / RFU, ARID1A / Fold change vs veh, ARID1A / RFU, ZNF146 / Fold change vs veh, ZNF146 / RFU, ZNF330 / Fold change vs veh, ZNF330 / RFU, GPN3 / Fold change vs veh, GPN3 / RFU, C9orf123 / Fold change vs veh, C9orf123 / RFU, N4BP2L2 / Fold change vs veh, N4BP2L2 / RFU, ARFIP1 / Fold change vs veh, ARFIP1 / RFU, FAM179B / Fold change vs veh, FAM179B / RFU, BCL10 / Fold change vs veh, BCL10 / RFU, UHRF1BP1L / Fold change vs veh, UHRF1BP1L / RFU, BET1 / Fold change vs veh, BET1 / RFU, CNOT2 / Fold change vs veh, CNOT2 / RFU, ZNF268 / Fold change vs veh, ZNF268 / Fold change vs veh, ZNF507 / RFU, DGCR2 / Fold change vs veh, DGCR2 / RFU, WDSUB1 / Fold change vs veh, WDSUB1 / Fold change vs veh, HSP90B1 /// MIR3652 / RFU, ADSS / Fold change vs veh, ADSS / RFU, GK / Fold change vs veh, GK / RFU, ZNF148 / Fold change vs veh, ZNF148 / RFU, TAF9 / Fold change vs veh, TAF9 / RFU, SLC1A5 / Fold change vs veh, SLC1A5 / RFU, SLMO2 / Fold change vs veh, SLMO2 / RFU, ABCC4 / Fold change vs veh, ABCC4 / RFU, LOC101060439 /// RAP1B / Fold change vs veh, LOC101060439 /// RAP1B / RFU, RFX7 / Fold change vs veh, RFX7 / RFU, GTPBP10 / Fold change vs veh, GTPBP10 / RFU, CNEP1R1 / Fold change vs veh, CNEP1R1 / RFU, BIVM-ERCC5 /// ERCC5 / Fold change vs veh, BIVM-ERCC5 /// ERCC5 / RFU, ILF3 / Fold change vs veh, ILF3 / RFU 11762660_at / Fold change /veh 11762660_at / RFU VCAN (11757783_s_at) / Fold change /veh VCAN (11757783_s_at) / RFU DDX43 (11728927_at) / Fold change /veh DDX43 (11728927_at) / RFU KRT8 (11758188_x_at) / Fold change /veh KRT8 (11758188_x_at) / RFU NKD1 (11759106_at) / Fold change /veh NKD1 (11759106_at) / RFU SRD5A1 (11742802_a_at) / Fold change /veh SRD5A1 (11742802_a_at) / RFU TPSAB1 /// TPSB2 (11721975_s_at) / Fold change /veh TPSAB1 /// TPSB2 (11721975_s_at) / RFU GSTM3 (11746129_a_at) / Fold change /veh GSTM3 (11746129_a_at) / RFU IL23R (11737362_x_at) / Fold change /veh IL23R (11737362_x_at) / RFU TMEM51 (11727254_a_at) / Fold change /veh TMEM51 (11727254_a_at) / RFU PIWIL2 (11732686_x_at) / Fold change /veh PIWIL2 (11732686_x_at) / RFU ORM1 (11744905_x_at) / Fold change /veh ORM1 (11744905_x_at) / RFU CCDC152 (11743942_at) / Fold change /veh CCDC152 (11743942_at) / RFU ECM1 (11717891_a_at) / Fold change /veh ECM1 (11717891_a_at) / RFU IL23R (11748794_a_at) / Fold change /veh IL23R (11748794_a_at) / RFU TNFAIP8L3 (11732012_x_at) / Fold change /veh TNFAIP8L3 (11732012_x_at) / RFU MBOAT4 (11741988_at) / Fold change /veh MBOAT4 (11741988_at) / RFU 11764193_at / Fold change /veh 11764193_at / RFU TMEM53 (11763286_at) / Fold change /veh TMEM53 (11763286_at) / RFU MAGEB2 (11727129_at) / Fold change /veh MAGEB2 (11727129_at) / RFU TMEM200A (11744735_a_at) / Fold change /veh TMEM200A (11744735_a_at) / RFU CCDC152 (11751479_a_at) / Fold change /veh CCDC152 (11751479_a_at) / RFU FAM211A (11726209_a_at) / Fold change /veh FAM211A (11726209_a_at) / RFU RGS16 (11746705_a_at) / Fold change /veh RGS16 (11746705_a_at) / RFU VCAN (11755009_s_at) / Fold change /veh VCAN (11755009_s_at) / RFU RHOB (11743442_s_at) / Fold change /veh RHOB (11743442_s_at) / RFU RGS16 (11720943_a_at) / Fold change /veh RGS16 (11720943_a_at) / RFU RGS16 (11720944_at) / Fold change /veh RGS16 (11720944_at) / RFU, VPS4B / Fold change vs veh, VPS4B / RFU, CREB1 / Fold change vs veh, CREB1 / RFU, DNAJC13 / Fold change vs veh, DNAJC13 / RFU, GNAQ / Fold change vs veh, GNAQ / RFU, CDK5R1 / Fold change vs veh, CDK5R1 / RFU, ZRANB3 / Fold change vs veh, ZRANB3 / RFU, CUL4A / Fold change vs veh, CUL4A / RFU, CCNY / Fold change vs veh, CCNY / RFU, UFL1 / Fold change vs veh, UFL1 / RFU, COG3 / Fold change vs veh, COG3 / RFU, DIAPH2 / Fold change vs veh, DIAPH2 / RFU, SKA2 / Fold change vs veh, SKA2 / RFU, AFF3 / Fold change vs veh, AFF3 / RFU, LMF1 / Fold change vs veh, LMF1 / RFU, IPO11 / Fold change vs veh, IPO11 / RFU, DFFB / Fold change vs veh, DFFB / RFU, FOXP1 / Fold change vs veh, FOXP1 / RFU, CARD8 / Fold change vs veh, CARD8 / RFU, STRN3 / Fold change vs veh, STRN3 / RFU, ADK / Fold change vs veh, ADK / RFU, RASSF2 / Fold change vs veh, RASSF2 / RFU, WIPF1 / Fold change vs veh, WIPF1 / RFU, LARP1B / Fold change vs veh, LARP1B / RFU, RASA1 / Fold change vs veh, RASA1 / RFU, RB1 / Fold change vs veh, RB1 / RFU, PPFIA1 / Fold change vs veh, PPFIA1 / RFU, MAT2A / Fold change vs veh, MAT2A / RFU, CCT5 / Fold change vs veh, CCT5 / RFU, WDR92 / Fold change vs veh, WDR92 / RFU, CUX1 / Fold change vs veh, CUX1 / RFU, TTC7A / Fold change vs veh, TTC7A / RFU, TMEM135 / Fold change vs veh, TMEM135 / RFU, DEPTOR / Fold change vs veh, DEPTOR / RFU, CPM / Fold change vs veh, CPM / RFU, DNAJB6 / Fold change vs veh, DNAJB6 / RFU, CACNA2D3 / Fold change vs veh, CACNA2D3 / RFU, DTX4 / Fold change vs veh, DTX4 / RFU, TFCP2 / Fold change vs veh, TFCP2 / RFU, GMCL1 /// GMCL1P1 / Fold change vs veh, GMCL1 /// GMCL1P1 / RFU, AEBP2 / Fold change vs veh, AEBP2 / RFU, SNHG1 /// SNORD22 /// SNORD25 /// SNORD26 /// SNORD27 /// SNORD28 /// SNORD29 /// SNORD31 / Fold change vs veh, SNHG1 /// SNORD22 /// SNORD25 /// SNORD26 /// SNORD27 /// SNORD28 /// SNORD29 /// SNORD31 / Fold change (Aza/veh), C12orf56 (ProbeSet 11735607_a_at) / Fold change (ACY-1035/veh), C12orf56 (ProbeSet 11735607_a_at) / Fold change (Aza/veh), FGFR1OP (ProbeSet 11751329_s_at) / Fold change (ACY-1035/veh), FGFR1OP (ProbeSet 11751329_s_at) / Fold change (Aza/veh), VPS36 (ProbeSet 11739960_a_at) / Fold change (ACY-1035/veh), VPS36 (ProbeSet 11739960_a_at) / RFU SYPL1 (11715823_x_at) / Fold change /veh SYPL1 (11715823_x_at) / RFU IGFBP7 (11715501_s_at) / Fold change /veh IGFBP7 (11715501_s_at) / RFU REEP3 (11722064_at) / Fold change /veh REEP3 (11722064_at) / RFU IGLL1 (11728026_x_at) / Fold change /veh IGLL1 (11728026_x_at): dose or concentration left out as unconfirmed
Conditions: ProbeSet 11726661_s_at; LIST B

With Nc1ccc(-c2cccs2)cc1NC(=O)c1ccc2c(c1)cc(C1CC1)n2CCN1CCOCC1 [ACY-1035] the “Fold change vs veh, GPN3” value was 0.89.
